Legend:
MDA-N = test: NCI human tumor cell panel: MDA-N (Breast Cancer); assay type: cell-based
U251 = test: NCI human tumor cell panel: U251 (CNS Cancer); assay type: cell-based
[1] = Selective cytotoxicity microculture assay, human renal carcinoma; conditions: human, SCI (selectively cytotoxicity index), GI50 (RPTEC)/GI50 (A-498)
OVCAR-3 = test: NCI human tumor cell panel: OVCAR-3 (Ovarian Cancer); assay type: cell-based
M14 = test: NCI human tumor cell panel: M14 (Melanoma); assay type: cell-based
MCF7 = test: NCI human tumor cell panel: MCF7 (Breast Cancer); assay type: cell-based
CAKI-1 = test: NCI human tumor cell panel: CAKI-1 (Renal Cancer); assay type: cell-based
SK-MEL-5 = test: NCI human tumor cell panel: SK-MEL-5 (Melanoma); assay type: cell-based
SF-539 = test: NCI human tumor cell panel: SF-539 (CNS Cancer); assay type: cell-based
SK-MEL-28 = test: NCI human tumor cell panel: SK-MEL-28 (Melanoma); assay type: cell-based
HCC-2998 = test: NCI human tumor cell panel: HCC-2998 (Colon Cancer); assay type: cell-based
COLO 205 = test: NCI human tumor cell panel: COLO 205 (Colon Cancer); assay type: cell-based
CCRF-CEM = test: NCI human tumor cell panel: CCRF-CEM (Leukemia); assay type: cell-based
SNB-19 = test: NCI human tumor cell panel: SNB-19 (CNS Cancer); assay type: cell-based
MDA-MB-231/ATCC = test: NCI human tumor cell panel: MDA-MB-231/ATCC (Breast Cancer); assay type: cell-based; conditions: Homo sapiens, MDA-MB-231, MDA-MB-231/ATCC
SF-268 = test: NCI human tumor cell panel: SF-268 (CNS Cancer); assay type: cell-based
RXF-393 = test: NCI human tumor cell panel: RXF-393 (Renal Cancer); assay type: cell-based
HL-60(TB) = test: NCI human tumor cell panel: HL-60(TB) (Leukemia); assay type: cell-based
RPMI-8226 = test: NCI human tumor cell panel: RPMI-8226 (Leukemia); assay type: cell-based
DU-145 = test: NCI human tumor cell panel: DU-145 (Prostate Cancer); assay type: cell-based
T-47D = test: NCI human tumor cell panel: T-47D (Breast Cancer); assay type: cell-based; conditions: T47D
NCI-H522 = test: NCI human tumor cell panel: NCI-H522 (Non-Small Cell Lung Cancer)
[2] = system: panel of sixty different human tumor cell lines; test: NCI human tumor cell panel: whole panel (mean graph summary)
SK-MEL-2 = test: NCI human tumor cell panel: SK-MEL-2 (Melanoma); assay type: cell-based
UO-31 = test: NCI human tumor cell panel: UO-31 (Renal Cancer); assay type: cell-based
[3] = read-out: Log10 GI50 (converted)
[4] = read-out: Log10 TGI (converted)

In the case of OCc1ccc(-c2ccc(-c3ccc[se]3)[se]2)[se]1 [compound 675246], the GI50 (MDA-N; [3]) is reported as 9.77 µM, the IC (TGI) (MDA-N; [4]) is reported as 56.2 µM and the GI50 (U251; U-251, U251, read-out: Log10 GI50 (converted)) is reported as 0.0708 µM. The IC (TGI) (U251; U-251, U251, read-out: Log10 TGI (converted)) was 12.3 µM, the selectivity ratio [1] was greater than 1000 and the GI50 (OVCAR-3; OVCAR-3, read-out: Log10 GI50 (converted)) was 0.0603 µM. The IC (TGI) (OVCAR-3; OVCAR-3, read-out: Log10 TGI (converted)) was 1.29 µM, the GI50 (M14; M14, read-out: Log10 GI50 (converted)) was 8.71 µM and the IC (TGI) (M14; M14, read-out: Log10 TGI (converted)) was 24 µM. It also gave a GI50 (MCF7; MCF7, read-out: Log10 GI50 (converted)) of 0.145 µM, an IC (TGI) (MCF7; MCF7, read-out: Log10 TGI (converted)) of 3.8 µM and a GI50 (CAKI-1; CAKI-1, read-out: Log10 GI50 (converted)) of 5.37 µM. The IC (TGI) (CAKI-1; CAKI-1, read-out: Log10 TGI (converted)) was 18.6 µM, the GI50 (SK-MEL-5; SK-MEL-5, read-out: Log10 GI50 (converted)) was 2.63 µM and the IC (TGI) (SK-MEL-5; SK-MEL-5, read-out: Log10 TGI (converted)) was 8.91 µM. The GI50 (SF-539; SF-539, read-out: Log10 GI50 (converted)) was 12.3 µM, the IC (TGI) (SF-539; SF-539, read-out: Log10 TGI (converted)) was 25.1 µM and the GI50 (SK-MEL-28; SK-MEL-28, read-out: Log10 GI50 (converted)) was 7.41 µM. The IC (TGI) (SK-MEL-28; SK-MEL-28, read-out: Log10 TGI (converted)) was 21.9 µM, the GI50 (HCC-2998; HCC-2998, read-out: Log10 GI50 (converted)) was 1.23 µM and the IC (TGI) (HCC-2998; HCC-2998, read-out: Log10 TGI (converted)) was 11.7 µM. The GI50 (COLO 205; COLO 205, read-out: Log10 GI50 (converted)) was 1 µM, the IC (TGI) (COLO 205; COLO 205, read-out: Log10 TGI (converted)) was 4.07 µM and the GI50 (CCRF-CEM; [3]) was 3.16 µM. It also gave an IC (TGI) (CCRF-CEM; [4]) of 12.3 µM, a GI50 (SNB-19; SNB-19, read-out: Log10 GI50 (converted)) of 12.3 µM and an IC (TGI) (SNB-19; SNB-19, read-out: Log10 TGI (converted)) of 52.5 µM. The GI50 (MDA-MB-231/ATCC; [3]) was 4.37 µM, the IC (TGI) (MDA-MB-231/ATCC; [4]) was 33.9 µM and the GI50 (SF-268; SF-268, read-out: Log10 GI50 (converted)) was 4.07 µM. For the same molecule, the IC (TGI) (SF-268; SF-268, read-out: Log10 TGI (converted)) was greater than 100 µM, the GI50 (RXF-393; RXF-393, read-out: Log10 GI50 (converted)) was 0.0209 µM and the IC (TGI) (RXF-393; RXF-393, read-out: Log10 TGI (converted)) was 0.0912 µM. The GI50 (HL-60(TB); [3]) was 5.75 µM, the IC (TGI) (HL-60(TB); read-out: Log10 TGI) was greater than 100 µM and the GI50 (RPMI-8226; RPMI-8226, read-out: Log10 GI50 (converted)) was 7.41 µM. For the same molecule, the IC (TGI) (RPMI-8226; RPMI-8226, read-out: Log10 TGI) was greater than 100 µM, the GI50 (DU-145; DU-145, read-out: Log10 GI50 (converted)) was 10.2 µM and the IC (TGI) (DU-145; DU-145, read-out: Log10 TGI (converted)) was 21.9 µM. For the same molecule, the GI50 (T-47D; [3]) was 3.8 µM, the IC (TGI) (T-47D; [4]) was 15.1 µM and the GI50 (NCI-H522; NCI-H522, read-out: Log10 GI50 (converted)) was 2.45 µM. The IC (TGI) (NCI-H522; NCI-H522, read-out: Log10 TGI) was 6.61 µM, the GI50 ([2]; Homo sapiens, read-out: Log10 GI50, MG_MID, mean over the panel (converted)) was 1.66 µM and the CC50 ([2]; Homo sapiens, read-out: Log10 LC50, MG_MID, mean over the panel (converted)) was 51.3 µM. For the same molecule, the “Log10 TGI, MG_MID” value ([2]; mean over the panel) was −4.91, the “Log10 TGI, Delta” value ([2]; whole panel) was 2.14 and the “Log10 TGI, Range” value ([2]; whole panel) was 3.04. The GI50 (SK-MEL-2; SK-MEL-2, read-out: Log10 GI50 (converted)) was 9.12 µM, the IC (TGI) (SK-MEL-2; SK-MEL-2, read-out: Log10 TGI (converted)) was 25.7 µM and the GI50 (UO-31; UO-31, read-out: Log10 GI50 (converted)) was 6.17 µM. The IC (TGI) (UO-31; UO-31, read-out: Log10 TGI (converted)) was 38.9 µM.

— patent US20040063662A1, “Selenophene anti-tumor agents” (priority 1996, published 2004)
